Measured values as given in patent US7807350B2 (The University of Chicago, priority 2003, dated 2010).
Like-named read-outs stand apart in the source and are kept apart here.

How the values were obtained:
[1] = Pharmacokinetic analysis of plasma irinotecan, SN-38 and SN-38G in patients, by TA indel genotype; assay type: in vivo, human; settings: for SN-38G AUC (mean) / SN-38 AUC (mean): after irinotecan
Description: Samples of 7 ml were collected into green top sodium heparinized Vacutainer® tubes prior to the infusion; 30, 60, and 90 minutes during the infusion; and 10, 20, 30, 45, and 60 minutes and 1.5, 2, 4, 6, 12, and 24 hours after the infusion. Samples were centrifuged (2500 rpm, 20 min, 4° C.) and the plasma was immediately separated, transferred as two aliquots into storage tubes, frozen at −80° C. until analysis.

[2] = Toxicity (neutropenia, diarrhea, toxic death) in cycle 1 of irinotecan 350 mg/m2 every 3 weeks in cancer patients, by UGT1A1 genotype; settings: for frequency of grade 4 neutropenia: cycle 1
[3] = cited from earlier work
[4] = Objective tumor response in the irinotecan 350 mg/m2 every 3 weeks trial; assay type: in vivo, human
Description: History, physical examination, complete blood count (CBC) with differential, serum chemistry profile (electrolytes, blood urea nitrogen, creatinine, glucose, albumin, alkaline phosphatase, GGTP, AST, ALT, total and conjugated bilirubin, uric acid, and lactate dehydrogenase), and coagulation profile (prothrombin time and partial thromboplastin time) were conducted prior to first treatment. Thereafter, history, physical examination, and toxicity assessment were conducted on day 1 of each cycle unless treatment-related toxicity required more frequent follow up. CBC and serum chemistry profile were obtained weekly throughout treatment, though CBCs were obtained 3 times per week with the appearance of grade 3 or 4 neutropenia or thrombocytopenia. Toxicity assessment was done according to the NCI common toxicity criteria, version 2.0 (website: ctep.cancer.gov). Objective tumor assessment by appropriate radiographic imaging was performed prior to starting therapy and after every 2 cycles.

[5] = relative to irinotecan; cited from earlier work
[6] = 6/6 TA indel genotype, 30 patients
[7] = 6/7 TA indel genotype, 25 patients
[8] = 7/7 TA indel genotype, 6 patients

SMILES: CCc1c2c(nc3ccc(O[C@@H]4O[C@H](C(=O)O)[C@@H](O)[C@H](O)[C@H]4O)cc13)-c1cc3c(c(=O)n1C2)COC(=O)[C@]3(O)CC [SN-38G, 10-O-glucuronyl-SN-38]
- SN-38G AUC (mean) [1, 6]: 1954.2 ng·h/mL
- SN-38G AUC (mean) [1, 7]: 1887.9 ng·h/mL
- SN-38G AUC (mean) [1, 8]: 1819.1 ng·h/mL

SMILES: CCc1c2c(nc3ccc(OC(=O)N4CCC(N5CCCCC5)CC4)cc13)-c1cc3c(c(=O)n1C2)COC(=O)[C@]3(O)CC [irinotecan, 7-ethyl-10-[4-(1-piperidino)-1-piperidino]carbonyloxycamptothecin]
- toxic death ([2]; neutropenia-related sepsis, day 11 of cycle 1, 7/7 genotype): One toxic death
- frequency of grade 4 neutropenia ([2]; patients with 6/6 genotype (0/30)): 0%
- frequency of grade 4 neutropenia ([2]; patients with 7/7 genotype (3/6)): 50%
- cases of grade 4 neutropenia ([2]; patients with pretreatment bilirubin less than 0.6 mg/dl): No cases
- patients with grade 3-4 diarrhea ([3]; early single agent trials, dose limiting): about one third
- frequency of grade 3-4 diarrhea ([3]; three-weekly regimen): 19%
- mortality rate ([3]; three-weekly single agent regimen): 1.6%
- frequency of grade 3-4 diarrhea ([3]; weekly schedule): 36%
- mortality rate ([3]; weekly single agent regimen): 5.3%
- objective responses ([4]; 60 patients assessable for response): 3
- patients achieving a partial response ([4]; colorectal and head and neck cancer, 6/7 genotype): Two
- patients achieving a complete response ([4]; colorectal cancer, 6/6 genotype): One

SMILES: CCc1c2c(nc3ccc(O)cc13)-c1cc3c(c(=O)n1C2)COC(=O)[C@]3(O)CC [SN-38, 7-ethyl-10-hydroxycamptothecin]
- Glucuronidation Ratio (SN-38G AUC/SN-38 AUC) [1, 6]: 6.52
- SN-38 AUC (mean) [1, 6]: 335.9 ng·h/mL
- Glucuronidation Ratio (SN-38G AUC/SN-38 AUC) [1, 7]: 5.55
- SN-38 AUC (mean) [1, 7]: 458.4 ng·h/mL
- Glucuronidation Ratio (SN-38G AUC/SN-38 AUC) [1, 8]: 3.59
- SN-38 AUC (mean) [1, 8]: 542.0 ng·h/mL
- antitumor activity higher than irinotecan [5]: 100-1,000 fold
